Assay results published in US20250154138A1, “Small Molecule IL-17A Modulators” (BeiGene, Ltd., priority 2022, published 2025).

Key:
[1] = target: human IL-17A / human IL-17RA (Homo sapiens (Human), UniProt Q16552); test: Human IL-17A biochemical assay (HTRF, blocking of IL-17A binding to IL-17RA); details: 0.4 nM IL-17A, 0.3 nM IL-17RA, max compound concentration 10 uM
In short: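 Inhibition of IL-17A binding to IL-17RA is measured by HTRF using 0.4 nM IL-17A, 0.3 nM IL-17RA and a 3 h compound pre-incubation at room temperature, pH 7.5. IC50 values come from four-parameter logistic fitting.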

[2] = system: IL-17-induced GROα secretion from HT-29 cells; test: GROα release assay in human colorectal adenocarcinoma epithelial cell (HT-29, ELISA); format: cell-based; details: Homo sapiens, HT-29, 48 h, 10 ng/mL IL-17A, highest concentration 10 μM, read-out: Cellular assay HT29 cell/CXCL1 IC50
In short: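 HT-29 cells were exposed 48 h at 37°C to IL-17A (final 10 ng/mL) preincubated 15 min with compound (4-fold dilutions, top 10 μM). Secreted GROα was quantified by ELISA against a standard curve, and IC50 obtained by four-parameter fitting.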

human IL-17A / human IL-17RA, sequence (Q16552 24-155): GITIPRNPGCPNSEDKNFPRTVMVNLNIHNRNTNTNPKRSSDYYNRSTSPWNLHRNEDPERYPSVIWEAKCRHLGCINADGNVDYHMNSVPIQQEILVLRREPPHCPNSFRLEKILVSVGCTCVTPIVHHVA

| SMILES | IC50 [1] [nM] | IC50 [2] [nM] |
| --- | --- | --- |
| Cn1nccc1C(=O)N[C@H](C(=O)Nc1ccc2c(c1)CC(CNc1ccccc1F)(N1CC3(CC3)CNC1=O)C2)C1CCCCC1 (stereo partly drawn) [Example 172, N-((1S)-1-cyclohexyl-2-((2-(((2-fluorophenyl)amino)methyl)-2-(6-oxo-5,7-diazaspiro[2.5]octan-5-yl)-2,3-dihydro-1H-inden-5-yl)amino)-2-oxoethyl)-1-methyl-1H-pyrazole-5-carboxamide] | 400 | 377 |
| CNC(=O)C1(N2CC3(CNC2=O)CC(F)(F)C3)Cc2ccc(NC(=O)[C@@H](NC(=O)c3ccnn3C)C3CCCCC3)cc2C1 (stereo partly drawn) [Example 174, N-((1S)-1-cyclohexyl-2-((2-(2,2-difluoro-7-oxo-6,8-diazaspiro[3.5]nonan-6-yl)-2-(methylcarbamoyl)-2,3-dihydro-1H-inden-5-yl)amino)-2-oxoethyl)-1-methyl-1H-pyrazole-5-carboxamide] | 264 | 485 |
| Cn1nccc1C(=O)N[C@H](C(=O)Nc1ccc2c(c1)CC(C(=O)NCc1ccccc1F)(N1CC3(CC3)CNC1=O)C2)C1CCCCC1 (stereo partly drawn) [Example 175, N-((1S)-1-cyclohexyl-2-((2-((2-fluorobenzyl)carbamoyl)-2-(6-oxo-5,7-diazaspiro[2.5]octan-5-yl)-2,3-dihydro-1H-inden-5-yl)amino)-2-oxoethyl)-1-methyl-1H-pyrazole-5-carboxamide] | 22.4 | 10.1 |
| CNC(=O)C1(N2CC3(CC3)CNC2=O)Cc2ccc(NC(=O)[C@@H](NC(=O)C(F)(F)c3ccc(C#N)n3C)C3CCCCC3)cc2C1 (stereo partly drawn) [Example 176, 5-((S)-2-(2-(5-cyano-1-methyl-1H-pyrrol-2-yl)-2,2-difluoroacetamido)-2-cyclohexylacetamido)-N-methyl-2-(6-oxo-5,7-diazaspiro[2.5]octan-5-yl)-2,3-dihydro-1H-indene-2-carboxamide] | 69.9 | 290 |
| CC(C)n1nccc1C(=O)N[C@H](C(=O)Nc1ccc2c(c1)CC(N1C[C@@H](C(F)(F)F)NC1=O)C2)C(C1CC1)C1CC1 (stereo partly drawn) [Example 177, N-((2S)-1,1-dicyclopropyl-3-oxo-3-((2-((S)-2-oxo-4-(trifluoromethyl)imidazolidin-1-yl)-2,3-dihydro-1H-inden-5-yl)amino)propan-2-yl)-1-isopropyl-1H-pyrazole-5-carboxamide] | 53.3 | 59.4 |
| Cc1nonc1C(=O)N[C@H](C(=O)Nc1ccc2c(c1)CC(N1C[C@@H](C(F)(F)F)NC1=O)C2)C1CCC(F)(F)CC1 (stereo partly drawn) [Example 178, N-((1S)-1-(4,4-difluorocyclohexyl)-2-oxo-2-((2-((S)-2-oxo-4-(trifluoromethyl)imidazolidin-1-yl)-2,3-dihydro-1H-inden-5-yl)amino)ethyl)-4-methyl-1,2,5-oxadiazole-3-carboxamide] | 3650 | 2210 |
| CNC(=O)C1(N2CC(C)(C(F)(F)F)CNC2=O)Cc2ccc(NC(=O)[C@@H](NC(=O)c3ccnn3C)C3CCCCC3)cc2C1 (stereo partly drawn) [Example 179, N-((1S)-1-cyclohexyl-2-((2-(5-methyl-2-oxo-5-(trifluoromethyl)tetrahydropyrimidin-1(2H)-yl)-2-(methylcarbamoyl)-2,3-dihydro-1H-inden-5-yl)amino)-2-oxoethyl)-1-methyl-1H-pyrazole-5-carboxamide] | 10.9 | 51.6 |
| CNC(=O)C1(N2CC3(CC3)CNC2=O)Cc2ccc(NC(=O)C(NC(=O)c3nonc3C)C3CCC(C(F)(F)F)CC3)cc2C1 (stereo not shown) [Example 181, 4-methyl-N-(2-((2-(methylcarbamoyl)-2-(6-oxo-5,7-diazaspiro[2.5]octan-5-yl)-2,3-dihydro-1H-inden-5-yl)amino)-2-oxo-1-(4-(trifluoromethyl)cyclohexyl)ethyl)-1,2,5-oxadiazole-3-carboxamide] | 193 | 154 |
| Cn1nccc1C(=O)N[C@H](C(=O)Nc1ccc2c(c1)CC(C(=O)NC13CC(C1)C3)(N1CC3(CC3)CNC1=O)C2)C1CCCCC1 (stereo partly drawn) [Example 182, N-((1S)-2-((2-(bicyclo[1.1.1]pentan-1-ylcarbamoyl)-2-(6-oxo-5,7-diazaspiro[2.5]octan-5-yl)-2,3-dihydro-1H-inden-5-yl)amino)-1-cyclohexyl-2-oxoethyl)-1-methyl-1H-pyrazole-5-carboxamide] | 26.9 | 52.9 |
| Cc1nonc1C(=O)N[C@H](C(=O)Nc1ccc2c(c1)CC(N1C[C@@H](C(F)(F)F)NC1=O)C2)C(C1CC1)C1CC1 (stereo partly drawn) [Example 183, N-((2S)-1,1-dicyclopropyl-3-oxo-3-((2-((S)-2-oxo-4-(trifluoromethyl)imidazolidin-1-yl)-2,3-dihydro-1H-inden-5-yl)amino)propan-2-yl)-4-methyl-1,2,5-oxadiazole-3-carboxamide] | 768 | 370 |
| Cc1nonc1C(=O)N[C@H](C(=O)Nc1ccc2c(c1)CC(c1nc3ccccc3[nH]1)(N1CC3(CC3)CNC1=O)C2)C1CCC(F)(F)CC1 (stereo partly drawn) [Example 184, N-((1S)-2-((2-(1H-benzo[d]imidazol-2-yl)-2-(6-oxo-5,7-diazaspiro[2.5]octan-5-yl)-2,3-dihydro-1H-inden-5-yl)amino)-1-(4,4-difluorocyclohexyl)-2-oxoethyl)-4-methyl-1,2,5-oxadiazole-3-carboxamide] | 151 | 57.3 |
| Cc1nonc1C(=O)N[C@H](C(=O)Nc1ccc2c(c1)CC(C(=O)NCC(C)C1CCCCC1)(N1CC3(CC3)CNC1=O)C2)C1CCC(F)(F)CC1 (stereo partly drawn) [Example 185, N-((1S)-2-((2-((2-cyclohexylpropyl)carbamoyl)-2-(6-oxo-5,7-diazaspiro[2.5]octan-5-yl)-2,3-dihydro-1H-inden-5-yl)amino)-1-(4,4-difluorocyclohexyl)-2-oxoethyl)-4-methyl-1,2,5-oxadiazole-3-carboxamide] | 119 | 275 |
| CNC(=O)C1(N2C[C@@H](C(C)C)NC2=O)Cc2ccc(NC(=O)C(NC(=O)c3ccnn3C)C3CCc4cc(Cl)ccc4C3)cc2C1 (stereo partly drawn) [Example 186, N-(1-(6-chloro-1,2,3,4-tetrahydronaphthalen-2-yl)-2-((2-((R)-4-isopropyl-2-oxoimidazolidin-1-yl)-2-(methylcarbamoyl)-2,3-dihydro-1H-inden-5-yl)amino)-2-oxoethyl)-1-methyl-1H-pyrazole-5-carboxamide] | 6.3 | 15.1 |
| Cc1nonc1C(=O)N[C@H](C(=O)Nc1ccc2c(c1)CC(c1nc3cccc(F)c3[nH]1)(N1CC3(CC3)CNC1=O)C2)C1CCC(F)(F)CC1 (stereo partly drawn) [Example 187, N-((1S)-1-(4,4-difluorocyclohexyl)-2-((2-(7-fluoro-1H-benzo[d]imidazol-2-yl)-2-(6-oxo-5,7-diazaspiro[2.5]octan-5-yl)-2,3-dihydro-1H-inden-5-yl)amino)-2-oxoethyl)-4-methyl-1,2,5-oxadiazole-3-carboxamide] | 249 | 246 |
| Cc1nonc1C(=O)N[C@H](C(=O)Nc1ccc2c(c1)CC(C(=O)O)(N1CC3(CC3)CNC1=O)C2)C1CCC(F)(F)CC1 (stereo partly drawn) [Example 188, 5-((S)-2-(4,4-difluorocyclohexyl)-2-(4-methyl-1,2,5-oxadiazole-3-carboxamido)acetamido)-2-(6-oxo-5,7-diazaspiro[2.5]octan-5-yl)-2,3-dihydro-1H-indene-2-carboxylic acid] | 44.9 | 450 |
| Cn1nccc1C(=O)N[C@H](C(=O)Nc1ccc2c(c1)CC(C(=O)O)(N1CC3(CC3)CNC1=O)C2)C1CCCCC1 (stereo partly drawn) [Example 189, 5-((S)-2-cyclohexyl-2-(1-methyl-1H-pyrazole-5-carboxamido)acetamido)-2-(6-oxo-5,7-diazaspiro[2.5]octan-5-yl)-2,3-dihydro-1H-indene-2-carboxylic acid] | 15.3 | 124 |
| Cc1nonc1C(=O)N[C@H](C(=O)Nc1ccc2c(c1)CC(C(=O)NC1CCC(F)(F)C1)(N1CC3(CC3)CNC1=O)C2)C1CCC(F)(F)CC1 (stereo partly drawn) [Example 190, N-((1S)-1-(4,4-difluorocyclohexyl)-2-((2-((3,3-difluorocyclopentyl)carbamoyl)-2-(6-oxo-5,7-diazaspiro[2.5]octan-5-yl)-2,3-dihydro-1H-inden-5-yl)amino)-2-oxoethyl)-4-methyl-1,2,5-oxadiazole-3-carboxamide] | 87.1 | 139 |
| Cc1nonc1C(=O)N[C@H](C(=O)Nc1ccc2c(c1)CC(C(=O)NC1CCC(F)(F)CC1)(N1CC3(CC3)CNC1=O)C2)C1CCC(F)(F)CC1 (stereo partly drawn) [Example 191, N-((1S)-1-(4,4-difluorocyclohexyl)-2-((2-((4,4-difluorocyclohexyl)carbamoyl)-2-(6-oxo-5,7-diazaspiro[2.5]octan-5-yl)-2,3-dihydro-1H-inden-5-yl)amino)-2-oxoethyl)-4-methyl-1,2,5-oxadiazole-3-carboxamide] | 76.9 | 168 |
| Cc1nonc1C(=O)N[C@H](C(=O)Nc1ccc2c(c1)CC(c1nc3cccc(C(F)(F)F)c3[nH]1)(N1CC3(CC3)CNC1=O)C2)C1CCC(F)(F)CC1 (stereo partly drawn) [Example 192, N-((1S)-1-(4,4-difluorocyclohexyl)-2-oxo-2-((2-(6-oxo-5,7-diazaspiro[2.5]octan-5-yl)-2-(7-(trifluoromethyl)-1H-benzo[d]imidazol-2-yl)-2,3-dihydro-1H-inden-5-yl)amino)ethyl)-4-methyl-1,2,5-oxadiazole-3-carboxamide] | 1660 | 1240 |
| Cn1nccc1C(=O)N[C@H](C(=O)Nc1ccc2c(c1)CC(C(=O)C(F)(F)F)(N1CC3(CC3)CNC1=O)C2)C1CCCCC1 (stereo partly drawn) [Example 193, N-((1S)-1-cyclohexyl-2-oxo-2-((2-(6-oxo-5,7-diazaspiro[2.5]octan-5-yl)-2-(2,2,2-trifluoroacetyl)-2,3-dihydro-1H-inden-5-yl)amino)ethyl)-1-methyl-1H-pyrazole-5-carboxamide] | 50.7 | 140 |
